Experiments:
[1] = test system: human liver cancer cell line H7402; assay: MTT proliferation inhibition, H7402; format: cell-based; settings: 48 h
Experimental: Human leukemia cell line K562, clear-cell ovarian carcinoma cell line ES-2, human prostate cancer cell line PC-3, human breast cancer cell line MCF-7, cell line Hela, human liver cancer cell line H7402 and human ovarian cancer cell line 3-AO were transferred into a culture flask and were cultured in a medium at 37° C. in a 5% CO2 and saturation humidity. One bottle of cells in logarithmic growth phase was picked out and was blew and beaten to be uniform with a pipette, then took some cell suspension solution to prepare blood counting plate smear to count cells under inverted microscope, and then adjusted the cell number to be 1×10^5/mL by adding some culture medium. Cells were seeded on a 96-well plate on which also drug tests performed. Blank control group, negative control group, positive control group and drug test group were established on the plate while the surrounding wells of the plate were not used (but filled with sterile PBS), wherein the blank control groups were prepared by addition of culture medium 150 μL per well, the negative control groups were prepared by addition of cell suspension solution 100 μL per well and culture medium 50 μL per well, the positive control groups were prepared by addition of cell suspension solution 100 μL per well and positive control drug solution 50 μL per well, the drug test groups were prepared by addition of cell suspension solution 100 μL per well and test compound solution 50 μL per well, and there were 5 different concentrations of drug in the positive control group and the drug test group respectively: 0.01, 0.1, 1, 10, 100 μmol·L^−1, each concentration was established with 3 parallel wells. After the drug was added, the 96-well plate was incubated for 48 h at 37° C. in a CO2 incubator of 5% CO2 and saturation humidity. Upon completion of the incubation, 20 μL MTT solution (concentration was 5 mg/mL) was added to each well and incubated for an additional 4 h, and after the 96-well plate was centrifuged at 2000 rpm for 30 min, medium of each well was suck out carefully and removed and 100 μL DMSO was added instead, followed by vibrating on a tablet shaker for 15 min to re-dissolve formazan crystals completely. OD value of each well was measured at 570 nm wavelength using an enzyme-linked immunosorbent assay reader to calculate cellular proliferation inhibitory ratio of each drug in different concentrations. And half-inhibitory concentration (IC50) was calculated using statistical software SPSS 16.0, wherein the cellular proliferation inhibitory ratio can be calculated as following equation: […]

H22 tumor cells = assay: Activities of compounds in H22 tumor cells bearing Kunming mice models (Example 34); settings: for anti-tumor growth activity: FIGS. 11-14; for Number of mice alive: 8 mice; for Tumor growth inhibition (%) / Tumor weight: after two cycles
Experimental: The ascites was extracted from H22 tumour bearing mice with well growth, followed by adding sterile PBS to dilute the ascites to a concentration of 8.5×10^7 cells/mL. 100 uL of the cells solution was suck up by a 1 mL sterile injector to inoculate into right oxter of mice. After 3 days, the mice were weighted and randomized to several groups (almost 8 mice per group, and a bit more in control group). These mice were administrated a predetermined dosage by intravenous or oral gavage with two days off when having administrated for 5 days until two cycles one of which had 7 days. The body weight of mouse was recorded at the beginning and ending of every cycle,
After being administrated for two cycles, the mice were weighted and recorded, then sacrificed by cervical dislocation to get lung, liver and spleen weighted respectively.
Overall difference was calculated by the function of one-way analysis of variance (One-Way ANOVA) in Origin 7.5 software; and t-test was used for pair-comparison between drug administrated group and blank group, and the inhibitory ratio of drug in each group was calculated based on the following equation: inhibitory ratio (100%)=(mean tumor weight of control group−mean tumor weight of drug administrated group)/mean tumor weight of control group×100.

Aminopeptidase N = target: T1, Aminopeptidase N (Sus scrofa, UniProt P15145); assay: Inhibition activity against enzyme in vitro (aminopeptidase N, L-Leu-p-nitroanilide substrate); format: biochemical; settings: for IC50: 37° C., 0.5 h, absorbance 405 nm, PBS pH 7.2, read-out: IC50(μM) APN
T1 construct: purchased Sigma
T1 sequence (P15145 1-963): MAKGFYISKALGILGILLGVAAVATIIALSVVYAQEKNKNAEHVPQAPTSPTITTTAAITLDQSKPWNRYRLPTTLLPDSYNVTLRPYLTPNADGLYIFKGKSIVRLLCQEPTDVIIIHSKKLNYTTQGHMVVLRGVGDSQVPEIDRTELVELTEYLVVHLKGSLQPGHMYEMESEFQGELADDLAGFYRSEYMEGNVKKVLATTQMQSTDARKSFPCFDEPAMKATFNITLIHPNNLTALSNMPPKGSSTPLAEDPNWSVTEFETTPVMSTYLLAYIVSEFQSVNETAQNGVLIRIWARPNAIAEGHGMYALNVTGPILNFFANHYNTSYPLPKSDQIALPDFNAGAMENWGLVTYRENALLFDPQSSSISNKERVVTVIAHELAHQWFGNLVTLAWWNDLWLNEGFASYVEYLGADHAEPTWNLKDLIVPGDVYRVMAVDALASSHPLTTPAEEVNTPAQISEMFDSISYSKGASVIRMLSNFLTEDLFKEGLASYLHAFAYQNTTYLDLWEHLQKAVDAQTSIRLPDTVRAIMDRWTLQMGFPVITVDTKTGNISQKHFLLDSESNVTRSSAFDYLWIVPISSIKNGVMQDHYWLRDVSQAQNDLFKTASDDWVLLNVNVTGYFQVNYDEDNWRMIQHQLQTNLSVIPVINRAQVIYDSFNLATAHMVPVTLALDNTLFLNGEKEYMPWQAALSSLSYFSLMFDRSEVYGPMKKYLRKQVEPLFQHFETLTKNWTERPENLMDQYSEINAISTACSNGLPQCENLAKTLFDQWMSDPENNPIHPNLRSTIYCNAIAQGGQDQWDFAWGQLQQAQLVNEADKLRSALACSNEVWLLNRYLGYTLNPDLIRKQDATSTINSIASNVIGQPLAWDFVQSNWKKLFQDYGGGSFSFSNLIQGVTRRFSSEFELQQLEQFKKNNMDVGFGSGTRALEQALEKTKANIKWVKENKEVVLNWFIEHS
Experimental: Aminopeptidase N and L-Leu-p-nitroanilide as substrate were purchased from Sigma cooperation.
Preparation of Buffer Solution: 12.89 g Na2HPO4.12H2O and 2.18 g NaH2PO4.2H2O were dissolved in a 1000 mL volumetric flask, then the mixture was diluted to 1000 mL with fresh distilled water to obtain 50 mM Phosphate Buffer solution (PBS, pH 7.2), which was kept at room temperature to spare.
Aminopeptidase N was dissolved in the buffer solution to obtain 0.1 IU/mL solution.
The substrate was dissolved in DMSO to obtain a […] solution, which was kept in refrigerator to spare.
The aminopeptidase N solution 10 μL, the substrate solution 5 μL and compound with different concentration 40 μL were added into a 96-well cell plate, and then adjusted to 200 μL with phosphate buffer saline solution (pH 7.2). […] And the substrate solution 5 μL of blank group was adjusted to 200 μL with buffer solution. The mixture was incubated at 37° C. for 0.5 h, and absorbance was then determined at 405 nm wavelength Inhibitory ratio can be calculated as follows: […]
According to concentration of compound and corresponding inhibitory ratio, the IC50 value was calculated by using a fitting curve of Origin 7.5 software.

[2] = intravenous injection, 50 mg/kg/d (0.1 mmol/kg/d)
[3] = oral gavage, 120 mg/kg/d ([…]) per dosage table, group printed *BC-01(50)
[4] = intravenous injection, 55 mg/kg/d (0.1 mmol/kg/d) (by order of dosage table)
[5] = intravenous injection, 79 mg/kg/d (0.15 mmol/kg/d) (by order of dosage table)
[6] = oral gavage, 130 mg/kg/d ([…]) per dosage table, group printed *BC-02(70)

CC(C)C[C@H](NC(=O)[C@@H](O)[C@H](N)Cc1ccccc1)C(=O)OCn1cc(F)c(=O)[nH]c1=O.Cl [BC-01, (S)-(5-fluoro-2,4-dioxo-3,4-dihydropyrimidinyl-1(2H))methyl-2-((2S,3R)-3-(amino)-2-hydroxy-4-phenylbutyryl)-4-methylpentanoate hydrochloride]
EC50 [1]: 1.86 µM | anti-tumor growth activity (H22 tumor cells): excellent anti-tumor growth activity | Number of mice alive (H22 tumor cells; intravenous injection, 50 mg/kg/d (0.1 mmol/kg/d), two cycles): 8 | Tumor growth inhibition (%) (H22 tumor cells; [2]): 84.38% | Tumor weight (H22 tumor cells; [2]): 0.09 ± 0.14 g | Body weight(g) Beginning (H22 tumor cells; [2]): 31.52 ± 3.63 g | Body weight(g) Ending (H22 tumor cells; [2]): 31.78 ± 5.76 g | Number of mice alive (H22 tumor cells; [3]): 7 | Tumor growth inhibition (%) (H22 tumor cells; [3]): 79.52% | Tumor weight (H22 tumor cells; [3]): 0.12 ± 0.16 g | Body weight(g) Beginning (H22 tumor cells; [3]): 27.87 ± 2.55 g | Body weight(g) Ending (H22 tumor cells; [3]): 29.50 ± 2.15 g | inhibitory activity against aminopeptidase N compared with positive control ubenimex (Aminopeptidase N): comparable activity with ubenimex | IC50 (Aminopeptidase N): 6.98 µM

CC(C)C[C@H](NC(=O)[C@@H](O)[C@H](N)Cc1ccccc1)C(=O)NCC(=O)OCn1cc(F)c(=O)[nH]c1=O.Cl [BC-02, (5-fluoro-2,4-dioxo-3,4-dihydropyrimidinyl-1(2H))methyl-2-((S)-2-((2S,3R)-3-amino-2-hydroxy-4-phenylbutanamido)-4-methylpentanamido)acetate hydrochloride]
EC50 [1]: 11 µM | tumor appearance until the end of the experiment (H22 tumor cells; 0.15 mmol/kg/d, intravenous): no tumor appeared | anti-tumor growth activity (H22 tumor cells): excellent anti-tumor growth activity | Number of mice alive (H22 tumor cells; [4]): 7 | Tumor growth inhibition (%) (H22 tumor cells; [4]): 89.52% | Tumor weight (H22 tumor cells; [4]): 0.06 ± 0.11 g | Body weight(g) Beginning (H22 tumor cells; [4]): 25.67 ± 2.62 g | Body weight(g) Ending (H22 tumor cells; [4]): 28.35 ± 3.71 g | Number of mice alive (H22 tumor cells; [5]): 7 | Tumor growth inhibition (%) (H22 tumor cells; [5]): 100% | Tumor weight (H22 tumor cells; [5]): 0.0 ± 0.0 g | Body weight(g) Beginning (H22 tumor cells; [5]): 30.32 ± 4.42 g | Body weight(g) Ending (H22 tumor cells; [5]): 31.13 ± 3.55 g | Number of mice alive (H22 tumor cells; [6]): 7 | Tumor growth inhibition (%) (H22 tumor cells; [6]): 89.76% | Tumor weight (H22 tumor cells; [6]): 0.06 ± 0.11 g | Body weight(g) Beginning (H22 tumor cells; [6]): 27.98 ± 3.73 g | Body weight(g) Ending (H22 tumor cells; [6]): 27.49 ± 4.94 g | inhibitory activity against aminopeptidase N compared with positive control ubenimex (Aminopeptidase N): much more potent than the positive control drug ubenimex | IC50 (Aminopeptidase N): 0.38 µM

Source: US9861703B2 (Jinan Platinum Pharmatech Co. Ltd., priority 2013, dated 2018)
